Tests used:
[1] = target: T1, bovine serum albumin (BSA) (Bos taurus, UniProt P02769); assay: BSA UV-vis absorption superposition (static vs dynamic quenching); type: binding; details: compound 24 μM, absorption spectra superposition
T1 construct: purchased Sigma Aldrich (St. Louis, MO, USA)
Experimental: Furthermore, examination of the absorption spectra of the fluorophores can be used as a means of characterising static and dynamic quenching. Given the premise that static quenching entails complex formation, alterations in the absorption spectra of BSA are to be anticipated. Conversely, since dynamic quenching only affects the excited states of BSA, its absorption spectra would remain unaltered. The absorption spectra of BSA were recorded in the absence and presence of each compound at a concentration of 24 μM, as well as the absorption spectrum of the compound at the same concentration. A mathematical superposition of the spectrum of BSA and the spectrum of the compounds was calculated.

Caco-2/TC7 cells = assay: MTT cell proliferation assay, Caco-2/TC7; type: cell-based, human; details: 72 h, mean ± SE of at least three determinations
Experimental: (§1) Cell culture. Human colon cancer Caco-2 cells (PD7 and TC7 clones) were kindly provided by Dr. Edith Brot-Laroche (Université Pierre et Marie Curie-Paris 6, UMR S 872, Les Cordeliers, Lyon, France) and grown in Dulbecco’s Modified Eagles medium (DMEM) (Gibco Invitrogen, Paisley, UK) supplemented with 20% foetal bovine serum (FBS), 1% non-essential amino acids, 1% streptomycin (1000 μg/mL), 1% penicillin (1000 μg/mL), and 1% amphotericin (250 U/mL). Caco-2 cells were maintained at 37 °C in a humidified atmosphere at 5% CO2.
(§2) Cell proliferation assay. Cell proliferation was measured using the 3-(4,5-dimethyl-2-thiazoyl)-2,5-diphenyltetrazolium bromide (MTT) assay, as previously described. Caco-2/TC7 cells were seeded in a 96-well plate at a density of 4000 cells/well and grown for 24 h before being treated with each complex or DMSO (used as control). After 72 h of incubation with the complexes, 10 μL of MTT (5 mg/mL) were added and incubation was continued at 37 °C for 3 h. Inversion removed the medium and 100 μL of DMSO were added to each well. Absorbance at 560 nm, proportional to many living cells, was measured by spectrophotometry (SPECTROstar Nano, BMG LABTECH, Ortenberg, Germany) and converted into a percentage (%) of growth inhibition.
(§3) The antiproliferative effects of the mononuclear and heteropolinuclear complexes were tested on two different Caco-2 cancer cell lines (PD7 and […]). […] Caco-2 cells of both PD7 and TC7 clones were exposed to increasing concentrations of the assayed compounds through dose–response/cell viability analysis. The results in terms of the IC50 parameter (Table 4) were obtained by using the MTT protocol.

[2] = target: T1, bovine serum albumin (BSA); assay: BSA fluorescence quenching (Stern-Volmer); type: binding; details: [BSA] = 50 μM, complex 0-30 μM, 298 K; for Stern-Volmer quenching constant KSV: λexc 295 nm
Experimental: Interaction with bovine serum albumin. BSA was purchased from Sigma Aldrich (St. Louis, MO, USA). A 2 mM stock solution of BSA was prepared by dissolving the commercial powder in PBS at pH 7.4. Afterwards, the real concentration was confirmed using UV-vis spectroscopy (ε280 nm = 43,824 M^−1cm^−1). The heteronuclear complexes were dissolved in DMSO to achieve 6 mM stock solutions, and six aliquots of 2.5 μL were added to a 50 μM solution of BSA in PBS placed in a quartz cuvette of 1 cm optical path. The final concentrations of the complexes in the cuvette were 0, 5, 10, 15, 20, 25, and 30 μM. The fluorescence spectra were recorded on a Jobin-Yvon-Horiba fluorolog FL-3-11 spectrometer. The samples were excited at 295 nm and the emission spectra were recorded in a range from 310 to 450 nm.
The samples were measured 4 min after every addition of the aliquots of the complexes. The fluorescence intensities of the PBS and the complexes were irrelevant under the described conditions. The data were analysed using the Stern–Volmer equation F0/F = 1 + KSV [gold complex] = 1 + Kqτ0[complex] to obtain the Stern–Volmer quenching constant (KSV) and the quenching rate constant (Kq). The binding constant (Kb) was quantified by using the Stern–Volmer equation: log {(F0 − F)/F} = log Kb + n log [complex].
We have carried out fluorescence and UV-Vis spectroscopic experiments to study the affinity of [Cu{Au(Spy)(PTA)}2]PF6 (1) and [Zn{Au(PTA)(Spy)}2](NO3)2 (2) for albumin. These experiments are based on the quenching of the intrinsic tryptophan fluorescence emission undergone by BSA in the presence of increasing concentrations of the trinuclear complexes, which act as quenchers. The intrinsic fluorescence of BSA is susceptible to alterations in its local environment, and the binding or simple electrostatic interaction of molecules can result in modifications to its emission spectrum. Fluorescence quenching experiments have been carried out, observing the emission of tryptophan at 341 nm upon excitation at 295 nm and increasing concentrations of compounds 2 and 3 with BSA. […] The addition of increasing amounts of the complexes to a BSA solution results in a significant reduction in fluorescence intensity without any shift in the emission maximum. The fluorescence data have been analysed using the Stern–Volmer equation so that the binding of the complexes to BSA and the consequent quenching of the emission can be quantified (Table 3). The corresponding plot F0/F versus [complex] (F and F0 are the corresponding intensities in the presence and the absence of the quencher agent) gives a linear plot in both cases (Figure 1B), characteristic of the presence of a single mechanism of quenching, either static or dynamic. […]

Caco-2/PD7 cells = assay: MTT cell proliferation assay, Caco-2/PD7; type: cell-based, human; details: for Cytotoxic activity compared with mononuclear precursor [Au(Spy)(PTA)] (fold): Caco-2 PD7 and TC7 clones, ratio of IC50; for IC50: MTT, 72 h, mean ± SE of at least three determinations
Experimental: as §1, §2, §3

[3] = Distribution coefficient (logP7.4), n-octanol-water shake-flask; type: physicochemical; details: n-octanol / buffered saline pH 7.4, shake-flask
Experimental: Distribution coefficient (logP7.4). The n-octanol-water coefficients of the complexes were determined using a shake-flask method, as previously reported. Briefly, buffered-saline distilled water (100 mL, phosphate buffer [PO4^3−] = 10 mM, [NaCl] = 0.15 M, pH 7.4) and n-octanol (100 mL) were shaken together for 72 h to allow for saturation of both phases. Approximately 1 mg of the complexes was dissolved in 5 mL of the aqueous phase and 5 mL of the organic phase was added, mixing them for 10 min. The resulting emulsion was centrifuged to separate the phases. The concentration of the compounds in each phase was determined using UV-vis absorbance spectroscopy. The logP7.4 was defined as log{[compound(organic)]/[compound(aqueous)]}.

T1 sequence (P02769 25-607): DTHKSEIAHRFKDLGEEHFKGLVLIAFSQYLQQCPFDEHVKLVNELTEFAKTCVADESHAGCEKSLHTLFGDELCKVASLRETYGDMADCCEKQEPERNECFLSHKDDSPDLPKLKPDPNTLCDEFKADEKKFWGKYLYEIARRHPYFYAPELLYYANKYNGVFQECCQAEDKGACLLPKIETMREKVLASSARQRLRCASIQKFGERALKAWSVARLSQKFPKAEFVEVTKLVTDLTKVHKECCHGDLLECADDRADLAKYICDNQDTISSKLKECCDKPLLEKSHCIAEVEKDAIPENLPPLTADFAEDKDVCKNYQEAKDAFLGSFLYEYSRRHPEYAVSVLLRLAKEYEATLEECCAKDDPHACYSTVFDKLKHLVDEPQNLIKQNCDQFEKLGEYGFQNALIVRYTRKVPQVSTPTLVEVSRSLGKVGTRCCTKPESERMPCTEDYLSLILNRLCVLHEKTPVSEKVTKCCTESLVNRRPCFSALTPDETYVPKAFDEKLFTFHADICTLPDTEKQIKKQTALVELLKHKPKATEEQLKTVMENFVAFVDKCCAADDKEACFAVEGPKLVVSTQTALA

Substance | Quenching / binding mode with BSA [1] | IC50 (Caco-2/TC7 cells) [µM] | number of binding sites n [2] | Stern-Volmer quenching constant KSV [2] [M⁻¹] | Cytotoxic activity compared with mononuclear precursor [Au(Spy)(PTA)] (fold) (Caco-2/PD7 cells; listed as Au2Cu compound (2)) | IC50 (Caco-2/PD7 cells) [µM] | logP [3] | Cytotoxic activity compared with mononuclear precursor [Au(Spy)(PTA)] (fold) (Caco-2/PD7 cells)
[Cu{Au(Spy)(PTA)}2]PF6 [compound 1] | dynamic binding | 0.13 ± 0.07 | 1.11 | 5730 | 15 | 0.16 ± 0.02 | 0.84 | 
[Zn{Au(PTA)(Spy)}2](NO3)2 [compound 2] | static binding mode may be implied | 1.94 ± 0.81 | 0.95 | 1760 |  | 2.18 ± 0.24 | 0.47 | slight improvement
